Active and inactive are the calls of the source. The rule behind the calls is not given here.
target: T1, Vitamin D3 receptor (Homo sapiens) (UniProt P11473); assay: Enhancement of VDR mediated transcriptional activity in human MCF7 cells; assay type: cell-based
T1 sequence (whole entry): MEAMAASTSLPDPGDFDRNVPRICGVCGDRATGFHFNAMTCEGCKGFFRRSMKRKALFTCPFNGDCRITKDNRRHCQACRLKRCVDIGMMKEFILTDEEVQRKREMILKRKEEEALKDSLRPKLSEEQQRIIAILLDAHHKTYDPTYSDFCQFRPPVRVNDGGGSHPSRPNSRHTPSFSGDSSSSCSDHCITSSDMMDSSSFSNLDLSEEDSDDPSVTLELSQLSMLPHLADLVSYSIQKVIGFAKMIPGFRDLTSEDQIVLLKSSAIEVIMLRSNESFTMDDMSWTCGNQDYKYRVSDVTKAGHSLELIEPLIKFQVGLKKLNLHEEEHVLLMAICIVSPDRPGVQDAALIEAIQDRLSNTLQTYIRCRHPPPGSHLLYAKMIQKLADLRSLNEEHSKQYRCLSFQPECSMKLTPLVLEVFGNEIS

Row | Activity | SMILES
1 | Active | C=C1/C(=C\C=C2/CCC[C@]3(C)[C@@H]([C@H](C)CCCC(C)(C)O)CC[C@@H]23)C[C@@H](O)[C@H](CCCO)[C@H]1CO
2 | Active | C=C1/C(=C\C=C2/CCC[C@]3(C)[C@@H]([C@H](C)CCCC(C)(C)O)CC[C@@H]23)C[C@@H](O)[C@H](CCCO)[C@@H]1CO
3 | Active | C=C1C[C@@H](CCCO)[C@H](O)C/C1=C/C=C1\CCC[C@]2(C)[C@@H]([C@H](C)CCCC(C)(C)O)CC[C@@H]12
4 | Active | C=C1/C(=C\C=C2/CCC[C@]3(C)[C@@H]([C@H](C)CCCC(C)(C)O)CC[C@@H]23)C[C@@H](O)[C@H](CCCO)[C@@H]1O

Source: ChEMBL document CHEMBL1143991, “The 2alpha-(3-hydroxypropyl) group as an active motif in vitamin D3 analogues as agonists of the mutant vitamin D receptor (Arg274Leu)” (Bioorg Med Chem, 2008)
